Experimental data from ChEMBL document CHEMBL3885861, “Open TG-GATES”.

Species on record: Rattus norvegicus
Test: Open TG-GATES - Regimen: Single
Assay type: toxicity, organism-based, Sprague-Dawley
Design: regimen Single, gender Male, age 6 weeks
Conditions: in vivo, po, route gavage; for APTT / Bas / Eos / Fbg / Hb / Ht / Lym / MCH / MCHC / MCV / Mono / Neu / PT / Plat / RBC / Ret / WBC: tissue Blood; for KIDNEY_L / KIDNEY_R / KIDNEY_TOTAL: tissue Kidney; for LIVER: tissue Liver; for A/G / ALP / ALT / AST / BUN / CRE / Ca / Cl / DBIL / GLC / IP / K / LDH / Na / PL / RALB / TBIL / TC / TG / TP / gamma-GTP: tissue Plasma
[1] = 0 mg/kg, 3 h, dose level Control
[2] = 0 mg/kg, 6 h, dose level Control
[3] = 0 mg/kg, 9 h, dose level Control
[4] = 0 mg/kg, 24 h, dose level Control
[5] = 100 mg/kg, 24 h, dose level Low

## CNC(=C[N+](=O)[O-])NCCSCc1ccc(CN(C)C)o1 [RANITIDINE]
[1]
  TERMINAL_BW: 216.9 g
  APTT: 20.3 s
  Bas: 0%
  Eos: 0.4%
  Fbg: 215 mg/dL
  Hb: 13.7 g/dL
  Ht: 39.6%
  Lym: 83.4%
  MCH: 21.8 pg
  MCHC: 34.7%
  MCV: 62.8 fL
  Mono: 2.6%
  Neu: 10.2%
  PT: 12.4 s
  Plat: 114.3 x10_4/uL
  RBC: 632.2 x10_4/ul
  Ret: 6.8%
  WBC: 87.5 x10_2/uL
  KIDNEY_L: 1 g
  KIDNEY_R: 1 g
  KIDNEY_TOTAL: 1.9 g
  LIVER: 9.7 g
  A/G: 1.6
  ALP: 1059 IU/L
  ALT: 36.4 IU/L
  AST: 70.2 IU/L
  BUN: 10.8 mg/dL
  CRE: 0.4 mg/dL
  Ca: 10.8 mg/dL
  Cl: 103 meq/L
  DBIL: 0.068 mg/dL
  GLC: 188.2 mg/dL
  IP: 8.4 mg/dL
  K: 3.8 meq/L
  LDH: 130.4 IU/L
  Na: 140.8 meq/L
  PL: 136.8 mg/dL
  RALB: 3.3 g/dL
  TBIL: 0.1 mg/dL
  TC: 75.2 mg/dL
  TG: 50.8 mg/dL
  TP: 5.3 g/dL
  gamma-GTP: 1 IU/L
[2]
  TERMINAL_BW: 213.6 g
  APTT: 19.4 s
  Bas: 0%
  Eos: 1%
  Fbg: 238.2 mg/dL
  Hb: 13.6 g/dL
  Ht: 38.7%
  Lym: 79%
  MCH: 22.3 pg
  MCHC: 35%
  MCV: 63.7 fL
  Mono: 2.6%
  Neu: 15.8%
  PT: 12.2 s
  Plat: 123.3 x10_4/uL
  RBC: 608.8 x10_4/ul
  Ret: 7.6%
  WBC: 97.4 x10_2/uL
  KIDNEY_L: 0.9 g
  KIDNEY_R: 0.9 g
  KIDNEY_TOTAL: 1.9 g
  LIVER: 9.5 g
  A/G: 1.7
  ALP: 839.8 IU/L
  ALT: 35.2 IU/L
  AST: 64.6 IU/L
  BUN: 10.2 mg/dL
  CRE: 0.4 mg/dL
  Ca: 10.7 mg/dL
  Cl: 102.8 meq/L
  DBIL: 0.066 mg/dL
  GLC: 195.2 mg/dL
  IP: 8.6 mg/dL
  K: 3.9 meq/L
  LDH: 111 IU/L
  Na: 140.2 meq/L
  PL: 146 mg/dL
  RALB: 3.4 g/dL
  TBIL: 0.1 mg/dL
  TC: 84.2 mg/dL
  TG: 55.4 mg/dL
  TP: 5.4 g/dL
  gamma-GTP: 1 IU/L
[3]
  TERMINAL_BW: 211.2 g
  APTT: 20.2 s
  Bas: 0%
  Eos: 1%
  Fbg: 230 mg/dL
  Hb: 13.6 g/dL
  Ht: 39.1%
  Lym: 81%
  MCH: 21.7 pg
  MCHC: 34.8%
  MCV: 62.4 fL
  Mono: 2%
  Neu: 14.2%
  PT: 12.3 s
  Plat: 120.9 x10_4/uL
  RBC: 627.6 x10_4/ul
  Ret: 7%
  WBC: 71.4 x10_2/uL
  KIDNEY_L: 1 g
  KIDNEY_R: 1 g
  KIDNEY_TOTAL: 1.9 g
  LIVER: 8.8 g
  A/G: 1.6
  ALP: 783.8 IU/L
  ALT: 29.8 IU/L
  AST: 62.8 IU/L
  BUN: 10 mg/dL
  CRE: 0.4 mg/dL
  Ca: 10.5 mg/dL
  Cl: 103.2 meq/L
  DBIL: 0.066 mg/dL
  GLC: 210.8 mg/dL
  IP: 8.5 mg/dL
  K: 3.9 meq/L
  LDH: 122.8 IU/L
  Na: 141.2 meq/L
  PL: 134 mg/dL
  RALB: 3.4 g/dL
  TBIL: 0.1 mg/dL
  TC: 76.8 mg/dL
  TG: 28.8 mg/dL
  TP: 5.5 g/dL
  gamma-GTP: 1.2 IU/L
[4]
  TERMINAL_BW: 228.8 g
  APTT: 21.3 s
  Bas: 0.2%
  Eos: 1%
  Fbg: 227.4 mg/dL
  Hb: 13.7 g/dL
  Ht: 39.1%
  Lym: 83.6%
  MCH: 22.5 pg
  MCHC: 35.2%
  MCV: 63.9 fL
  Mono: 2.2%
  Neu: 11.8%
  PT: 11.9 s
  Plat: 130.4 x10_4/uL
  RBC: 611.2 x10_4/ul
  Ret: 6.6%
  WBC: 112 x10_2/uL
  KIDNEY_L: 1 g
  KIDNEY_R: 1 g
  KIDNEY_TOTAL: 2.1 g
  LIVER: 10.9 g
  A/G: 1.6
  ALP: 872.4 IU/L
  ALT: 38.8 IU/L
  AST: 62.6 IU/L
  BUN: 16 mg/dL
  CRE: 0.4 mg/dL
  Ca: 10.8 mg/dL
  Cl: 102.4 meq/L
  DBIL: 0.094 mg/dL
  GLC: 190.2 mg/dL
  IP: 7.7 mg/dL
  K: 4.1 meq/L
  LDH: 121 IU/L
  Na: 140.6 meq/L
  PL: 148.8 mg/dL
  RALB: 3.5 g/dL
  TBIL: 0.1 mg/dL
  TC: 77.2 mg/dL
  TG: 78.6 mg/dL
  TP: 5.7 g/dL
  gamma-GTP: 1 IU/L
100 mg/kg, 3 h, dose level Low
  TERMINAL_BW: 216.8 g
  APTT: 19.1 s
  Bas: 0%
  Eos: 1%
  Fbg: 225.4 mg/dL
  Hb: 13.7 g/dL
  Ht: 39.7%
  Lym: 76.8%
  MCH: 22.3 pg
  MCHC: 34.5%
  MCV: 64.5 fL
  Mono: 2.8%
  Neu: 15.2%
  PT: 12.1 s
  Plat: 118 x10_4/uL
  RBC: 616 x10_4/ul
  Ret: 7.4%
  WBC: 87.6 x10_2/uL
  KIDNEY_L: 1 g
  KIDNEY_R: 1 g
  KIDNEY_TOTAL: 2 g
  LIVER: 10.3 g
  A/G: 1.6
  ALP: 1082.6 IU/L
  ALT: 38.2 IU/L
  AST: 66.6 IU/L
  BUN: 11.4 mg/dL
  CRE: 0.4 mg/dL
  Ca: 10.7 mg/dL
  Cl: 103.8 meq/L
  DBIL: 0.078 mg/dL
  GLC: 190.6 mg/dL
  IP: 8.7 mg/dL
  K: 3.7 meq/L
  LDH: 153 IU/L
  Na: 141 meq/L
  PL: 137.8 mg/dL
  RALB: 3.4 g/dL
  TBIL: 0.1 mg/dL
  TC: 73.2 mg/dL
  TG: 57.4 mg/dL
  TP: 5.6 g/dL
  gamma-GTP: 1.2 IU/L
100 mg/kg, 6 h, dose level Low
  TERMINAL_BW: 216.3 g
  APTT: 17.7 s
  Bas: 0%
  Eos: 0.6%
  Fbg: 229.6 mg/dL
  Hb: 12.9 g/dL
  Ht: 37.1%
  Lym: 73.2%
  MCH: 22 pg
  MCHC: 34.8%
  MCV: 63.2 fL
  Mono: 2.2%
  Neu: 19.6%
  PT: 12.3 s
  Plat: 118.8 x10_4/uL
  RBC: 588 x10_4/ul
  Ret: 7.3%
  WBC: 96.3 x10_2/uL
  KIDNEY_L: 1 g
  KIDNEY_R: 1 g
  KIDNEY_TOTAL: 2 g
  LIVER: 9.3 g
  A/G: 1.7
  ALP: 929.4 IU/L
  ALT: 34 IU/L
  AST: 66.4 IU/L
  BUN: 9.6 mg/dL
  CRE: 0.4 mg/dL
  Ca: 10.5 mg/dL
  Cl: 103.4 meq/L
  DBIL: 0.074 mg/dL
  GLC: 198 mg/dL
  IP: 8.6 mg/dL
  K: 3.8 meq/L
  LDH: 168.8 IU/L
  Na: 140.4 meq/L
  PL: 134.2 mg/dL
  RALB: 3.4 g/dL
  TBIL: 0.1 mg/dL
  TC: 73 mg/dL
  TG: 52.8 mg/dL
  TP: 5.4 g/dL
  gamma-GTP: 1.4 IU/L
100 mg/kg, 9 h, dose level Low
  TERMINAL_BW: 213.4 g
  APTT: 19.1 s
  Bas: 0%
  Eos: 1%
  Fbg: 217.2 mg/dL
  Hb: 13.2 g/dL
  Ht: 37.7%
  Lym: 72%
  MCH: 22.1 pg
  MCHC: 34.9%
  MCV: 63.3 fL
  Mono: 2.6%
  Neu: 21.8%
  PT: 12.6 s
  Plat: 116.5 x10_4/uL
  RBC: 596.2 x10_4/ul
  Ret: 7.2%
  WBC: 81.2 x10_2/uL
  KIDNEY_L: 1 g
  KIDNEY_R: 1 g
  KIDNEY_TOTAL: 1.9 g
  LIVER: 8.4 g
  A/G: 1.6
  ALP: 835.8 IU/L
  ALT: 32.2 IU/L
  AST: 68 IU/L
  BUN: 10 mg/dL
  CRE: 0.3 mg/dL
  Ca: 10.3 mg/dL
  Cl: 103.4 meq/L
  DBIL: 0.062 mg/dL
  GLC: 194.2 mg/dL
  IP: 8.4 mg/dL
  K: 3.6 meq/L
  LDH: 144.4 IU/L
  Na: 140.4 meq/L
  PL: 132.6 mg/dL
  RALB: 3.3 g/dL
  TBIL: 0.1 mg/dL
  TC: 78.6 mg/dL
  TG: 22.2 mg/dL
  TP: 5.3 g/dL
  gamma-GTP: 1.4 IU/L
[5]
  TERMINAL_BW: 226.3 g
  APTT: 19.4 s
  Bas: 0%
  Eos: 1%
  Fbg: 227 mg/dL
  Hb: 13.9 g/dL
  Ht: 39.7%
  Lym: 79.2%
  MCH: 22.7 pg
  MCHC: 35.2%
  MCV: 64.4 fL
  Mono: 2.4%
  Neu: 15.2%
  PT: 12 s
  Plat: 116.2 x10_4/uL
  RBC: 617.2 x10_4/ul
  Ret: 6.5%
  WBC: 100.7 x10_2/uL
  KIDNEY_L: 1 g
  KIDNEY_R: 1 g
  KIDNEY_TOTAL: 2 g
  LIVER: 10.7 g
  A/G: 1.5
  ALP: 931.8 IU/L
  ALT: 33.8 IU/L
  AST: 65.6 IU/L
  BUN: 14.4 mg/dL
  CRE: 0.4 mg/dL
  Ca: 10.8 mg/dL
  Cl: 102.2 meq/L
  DBIL: 0.086 mg/dL
  GLC: 196.6 mg/dL
  IP: 7.6 mg/dL
  K: 4 meq/L
  LDH: 147.8 IU/L
  Na: 140.2 meq/L
  PL: 142.8 mg/dL
  RALB: 3.3 g/dL
  TBIL: 0.1 mg/dL
  TC: 70.8 mg/dL
  TG: 90 mg/dL
  TP: 5.5 g/dL
  gamma-GTP: 1 IU/L
